Measured values as given in patent publication US7012060B1, “TNF receptor and steroid hormone in a combined therapy” (priority 1995, dated 2006).
Marks after values point to notes of the source that are not given here.

Test system: septic shock induced by LPS + D-Galactosamine, in mice
Assay: LPS+D-Galactosamine-induced septic shock model
Assay type: in vivo, SPF female BALB/c inbred mice
Description: The experiments were carried out in vivo on mice. The septic shock was induced by an i.p. administration of a mixture of LPS (0.1 μg/mouse) and D-Galactosamine (18 mg/mouse).
The treatment schedule for r-hTBP-1 based on repeated administrations (the total dose was divided into 4 administrations given at time 0 and […] and 24 hours after), was adopted. CHO r-hTBP-1 was tested, alone or in combination with DHEA, at dose levels of 62.5 and 125 μg/mouse (total dose).
DHEA was tested both in a single administration injected i.p. one hour before and contemporaneously to the septic shock-inducing agent at doses encompassed between 100 and 2.000 μg/mouse and in repeated treatment with the total dose (250 μg/mouse) divided into 4 injections given within 24 hours.
The above treatment schedules of DHEA (doses from 250 to 1,500 μl g/mouse) were followed also in combination with r-hTBP-1 which was tested at the total dose varying from 62.5 to 125 μg/mouse (divided into 4 administrations).
SPF female BALB/c inbred mice, 6–8 weeks (about 18–20 g b.w.), from Charles River were used throughout the whole study after an acclimatisation period of at least 7 days.
Unless otherwise specified, in all the experiments the mice were randomly divided into groups of 10 animals each.
Both substances were dissolved in saline. The mixture of LPS (0.1 μg/mouse) and D-Galactosamine (18 mg/mouse) was prepared by mixing equal volumes of these substances. The mixture was subsequently injected to animals by the i.p. route. This dose was selected under precious experiments as that inducing around 80% mortality calculated as the number of dead vs. total number of mice for each croup. The lethality was monitored after 24, 48, 72 and 96 hours and at day 7 post-treatment.
The drug was diluted in saline and injected by repeated administrations, i.e. i.v. immediately before the inoculum of LPS plus D-Galactosamine and s.c. 3, 6 and 24 hours later.
The effects of DHEA, alone or in combination with r-hTBP-1, were assayed after single i.p. administrations at different times in respect to LPS+D-Galactosamine injection; in particular, it was administered 1 hour before and contemporaneously to the septic shock-inducing agent.
A repeated treatment schedule was also investigated in which DHEA was administered at time 0 (septic shock induction) and 3, 6 and 24 hours later. DHEA was initially vehicled in a mixture of 2.5% alcohol and 10% rabbit serum in saline. To improve the solubility and standardise the preparation, the steroid was successively dispersed in a mixture of 2.5% alcohol and 10% phospholipid emulsion in saline.
The primary end point was the survival rate at 48 hours after induction of septic shock. The comparison of the effects of each treatment group vs. controls and among treatment groups was effected by Fisher's exact test, one-tailed. The same comparison was also performed at the other time points. The results in each treatment group were expressed as percent survival.
In all the experiments, percent survival values were calculated using the survival Tables for the follow up studies (Armitage P. Cap. XIV. Tavole di sopravvivenza in Statistica Medica, Feltrinelli, Milano). The χ^2-test was applied to each observation time by comparing the DHEA+r-hTBP-1 groups to the other groups.

Structure (SMILES): C[C@]12CC[C@H](O)CC1=CC[C@@H]1[C@@H]2CC[C@]2(C)C(=O)CC[C@@H]12 [DHEA, Dehydroepiandrosterone]
- % cumulative survival (DHEA 1500 μg/mouse i.p. 1 hour before LPS + D-Gal, saline 10% rabbit serum, 48 hrs, 2nd exp): 70^a %
- % cumulative survival (DHEA 1500 μg/mouse i.p. 1 hour before LPS + D-Gal, saline 10% rabbit serum, 72 hrs, 2nd exp): 50%
- % cumulative survival (DHEA 1500 μg/mouse i.p. 1 hour before LPS + D-Gal, saline 10% rabbit serum, 96 hrs, 2nd exp): 50%
- % cumulative survival (DHEA 2000 μg/mouse i.p. 1 hour before LPS + D-Gal, saline 10% rabbit serum, 24 hrs, 1st exp): 100^a %
- % cumulative survival (DHEA 2000 μg/mouse i.p. 1 hour before LPS + D-Gal, saline 10% rabbit serum, 24 hrs, 2nd exp): 100^a %
- % cumulative survival (DHEA 2000 μg/mouse i.p. 1 hour before LPS + D-Gal, saline 10% rabbit serum, 48 hrs, 1st exp): 100^a %
- % cumulative survival (DHEA 2000 μg/mouse i.p. 1 hour before LPS + D-Gal, saline 10% rabbit serum, 48 hrs, 2nd exp): 100^a %
- % cumulative survival (DHEA 2000 μg/mouse i.p. 1 hour before LPS + D-Gal, saline 10% rabbit serum, 72 hrs, 1st exp): 100^a %
- % cumulative survival (DHEA 2000 μg/mouse i.p. 1 hour before LPS + D-Gal, saline 10% rabbit serum, 72 hrs, 2nd exp): 100^a %
- % cumulative survival (DHEA 2000 μg/mouse i.p. 1 hour before LPS + D-Gal, saline 10% rabbit serum, 96 hrs, 1st exp): 100^a %
- % cumulative survival (DHEA 2000 μg/mouse i.p. 1 hour before LPS + D-Gal, saline 10% rabbit serum, 96 hrs, 2nd exp): 100^a %
- survival (DHEA 1.000 and 1.500 μg/mouse alone): 0–40%
- protective effects (DHEA at doses higher than 1.000 μg/mouse, 1 hour before LPS+D-Galactosamine): statistically significant protective effects
- protective effects (DHEA up to 1.000 μg/mouse, 1 hour before LPS+D-Galactosamine): No protective effects
- % cumulative survival (Table 2, DHEA 1000 μg/mouse i.p. 1 hour before LPS + D-Gal, saline 10% rabbit serum, 24 hrs): 0%
- % cumulative survival (Table 2, DHEA 1000 μg/mouse i.p. 1 hour before LPS + D-Gal, saline 10% rabbit serum, 48 hrs): 0%
- % cumulative survival (Table 2, DHEA 1000 μg/mouse i.p. 1 hour before LPS + D-Gal, saline 10% rabbit serum, 72 hrs): 0%
- % cumulative survival (Table 2, DHEA 1000 μg/mouse i.p. 1 hour before LPS + D-Gal, saline 10% rabbit serum, 96 hrs): 0%
- % cumulative survival (Table 2, DHEA 1500 μg/mouse i.p. 1 hour before LPS + D-Gal, saline 10% rabbit serum, 24 hrs): 40%
- % cumulative survival (Table 2, DHEA 1500 μg/mouse i.p. 1 hour before LPS + D-Gal, saline 10% rabbit serum, 48 hrs): 40%
- % cumulative survival (Table 2, DHEA 1500 μg/mouse i.p. 1 hour before LPS + D-Gal, saline 10% rabbit serum, 72 hrs): 20%
- % cumulative survival (Table 2, DHEA 1500 μg/mouse i.p. 1 hour before LPS + D-Gal, saline 10% rabbit serum, 96 hrs): 20%
- % cumulative survival (Table 4, DHEA 250 μg single injection at time 0 i.p., NaCl 10% PLE, 24 hr): 40%
- % cumulative survival (Table 4, DHEA 250 μg single injection at time 0 i.p., NaCl 10% PLE, 48 hr): 30%
- % cumulative survival (Table 4, DHEA 250 μg single injection at time 0 i.p., NaCl 10% PLE, 72 hr): 30%
- % cumulative survival (Table 4, DHEA 250 μg single injection at time 0 i.p., NaCl 10% PLE, 96 hr): 30%
- % cumulative survival (Table 4, DHEA 250 μg single injection at time 0 i.p., NaCl 10% RS, 24 hr): 30%
- % cumulative survival (Table 4, DHEA 250 μg single injection at time 0 i.p., NaCl 10% RS, 48 hr): 30%
- % cumulative survival (Table 4, DHEA 250 μg single injection at time 0 i.p., NaCl 10% RS, 72 hr): 30%
- % cumulative survival (Table 4, DHEA 250 μg single injection at time 0 i.p., NaCl 10% RS, 96 hr): 30%
- % cumulative survival (Table 5 group D, DHEA 250 μg single injection at time 0 i.p., NaCl 10% PLE, 24 hrs, 1st exp.): 40%
- % cumulative survival (Table 5 group D, DHEA 250 μg single injection at time 0 i.p., NaCl 10% PLE, 48 hrs, 1st exp.): 30%
- % cumulative survival (Table 5 group D, DHEA 250 μg single injection at time 0 i.p., NaCl 10% PLE, 72 hrs, 1st exp.): 30%
- % cumulative survival (Table 5 group D, DHEA 250 μg single injection at time 0 i.p., NaCl 10% PLE, 96 hrs, 1st exp.): 30%
- % cumulative survival (Table 5 group E, DHEA 62.5 μg x4 at time 0, 3, 6 and 24 hours i.p., NaCl 10% PLE, 24 hrs, 1st exp.): 40%
- % cumulative survival (Table 5 group E, DHEA 62.5 μg x4 at time 0, 3, 6 and 24 hours i.p., NaCl 10% PLE, 24 hrs, 2nd exp.): 40%
- % cumulative survival (Table 5 group E, DHEA 62.5 μg x4 at time 0, 3, 6 and 24 hours i.p., NaCl 10% PLE, 48 hrs, 1st exp.): 40%
- % cumulative survival (Table 5 group E, DHEA 62.5 μg x4 at time 0, 3, 6 and 24 hours i.p., NaCl 10% PLE, 48 hrs, 2nd exp.): 40%
- % cumulative survival (Table 5 group E, DHEA 62.5 μg x4 at time 0, 3, 6 and 24 hours i.p., NaCl 10% PLE, 72 hrs, 1st exp.): 40%
- % cumulative survival (Table 5 group E, DHEA 62.5 μg x4 at time 0, 3, 6 and 24 hours i.p., NaCl 10% PLE, 72 hrs, 2nd exp.): 40%
- % cumulative survival (Table 5 group E, DHEA 62.5 μg x4 at time 0, 3, 6 and 24 hours i.p., NaCl 10% PLE, 96 hrs, 1st exp.): 40%
- % cumulative survival (Table 5 group E, DHEA 62.5 μg x4 at time 0, 3, 6 and 24 hours i.p., NaCl 10% PLE, 96 hrs, 2nd exp.): 40%
- protection from death (survival) (at least 1.500 μg/mouse DHEA, 1 hour before LPS+D-Galactosamine): 70%
